Source: patent publication US10253039B2, “Inhibitors of bacterial DNA gyrase with efficacy against gram-negative bacteria” (priority 2014, dated 2019)
≈ marks a conversion by molar mass, not a printed value.

Columns and labels:
Type in all cases: cell-based
E. coli JW5503 (deltolC) = assay: MIC, 20-strain panel; conditions: Escherichia coli, E. coli JW5503 (deltolC)
Summary of the method: (§1)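 Determined via CLSI-guided microdilution: triplicate two-fold compound gradients, a DMSO vehicle column, and cultures seeded 1:10000 in LB from growing cells. Incubation lasted 16-18 hours at 37° C. under shaking, with MIC called as the lowest concentration lacking visible growth.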

[1] = test system: Staphylococcus aureus subsp. aureus; assay: MIC, 20-strain panel; conditions: Staphylococcus aureus subsp. aureus, read-out: MIC
Summary of the method: as §1

[2] = test system: Staphylococcus epidermidis; assay: MIC, 20-strain panel
Summary of the method: as §1

[3] = test system: Salmonella enterica subsp. enterica typhimurium; assay: MIC, 20-strain panel; conditions: Salmonella enterica subsp. enterica Typhimurium
Summary of the method: as §1

Streptococcus pyogenes = assay: MIC, 20-strain panel
Summary of the method: as §1

E. coli MG1655 = assay: MIC, 20-strain panel; conditions: Escherichia coli, MG1655, E. coli MG1655; read-out: MIC
Summary of the method: as §1

Shigella flexneri = assay: MIC, 20-strain panel
Summary of the method: as §1

[4] = test system: Staphylococcus saprophyticus subsp. saprophyticus; assay: MIC, 20-strain panel
Summary of the method: as §1

Streptococcus agalactiae = assay: MIC, 20-strain panel
Summary of the method: as §1

[5] = test system: Klebsiella pneumoniae subsp. pneumoniae; assay: MIC, 20-strain panel; conditions: Klebsiella pneumoniae subsp. pneumoniae
Summary of the method: as §1

E. coli BW25113 = assay: MIC, microdilution in 96-well plates; conditions: Escherichia coli, BW25113, E. coli BW25113; read-out: MIC
Summary of the method: as §1

Edwardsiella tarda = assay: MIC, microdilution in 96-well plates
Summary of the method: as §1

| Compound | MIC (E. coli JW5503 (deltolC)) | MIC [1] | MIC [2] | MIC [3] | MIC (Streptococcus pyogenes) | MIC (E. coli MG1655) | MIC (Shigella flexneri) | MIC [4] | MIC (Streptococcus agalactiae) | MIC [5] | MIC (E. coli BW25113) | MIC (Edwardsiella tarda) |
| --- | --- | --- | --- | --- | --- | --- | --- | --- | --- | --- | --- | --- |
| Cc1ccc(S(=O)(=O)N[C@@H]2CCN(Cc3ccc(OC(C)C)cc3)C2)cn1 [Compound 139] | > 8 µg/mL | > 8 µg/mL | > 8 µg/mL | > 8 µg/mL | > 8 µg/mL | > 8 µg/mL | > 8 µg/mL | > 8 µg/mL | > 8 µg/mL | > 8 µg/mL | > 8 µg/mL | > 8 µg/mL |
| CC(C)Oc1ccc(CN2CC[C@@H](NS(=O)(=O)c3cc(C(F)(F)F)ccc3Cl)C2)cc1 [Compound 140] | < 0.0625 µg/mL | > 8 µg/mL | > 8 µg/mL | 4 µg/mL (≈ 8.39 µM) | > 8 µg/mL | > 8 µg/mL | > 8 µg/mL | > 8 µg/mL | > 8 µg/mL | > 8 µg/mL | > 8 µg/mL | > 8 µg/mL |
| O=S(=O)(N[C@@H]1CCN(Cc2ccc(-c3ccccc3)cc2)C1)c1ccc(Cl)cn1 [Compound 141] | ~8 µg/mL (≈ 18.7 µM) | > 8 µg/mL | > 8 µg/mL | > 8 µg/mL | > 8 µg/mL | > 8 µg/mL | > 8 µg/mL | > 8 µg/mL | > 8 µg/mL | > 8 µg/mL | > 8 µg/mL | > 8 µg/mL |
| CS(=O)(=O)c1ccc(Cl)c(S(=O)(=O)N[C@@H]2CCN(Cc3ccc(-c4ccccc4)cc3)C2)c1 [Compound 142] | 2 µg/mL (≈ 3.96 µM) | > 8 µg/mL | > 8 µg/mL | > 8 µg/mL | > 8 µg/mL | > 8 µg/mL | > 8 µg/mL | > 8 µg/mL | > 8 µg/mL | > 8 µg/mL | > 8 µg/mL | > 8 µg/mL |
| Cc1c(CN2CC[C@@H](NS(=O)(=O)c3cccc(OC(F)(F)F)c3)C2)cnn1-c1ccccc1 [Compound 144] | 8 µg/mL (≈ 16.6 µM) | > 8 µg/mL | > 8 µg/mL | > 8 µg/mL | > 8 µg/mL | > 8 µg/mL | > 8 µg/mL | > 8 µg/mL | > 8 µg/mL | > 8 µg/mL | > 8 µg/mL | > 8 µg/mL |
| N#Cc1cccc(S(=O)(=O)N[C@@H]2CCN(Cc3ccc(-n4cccn4)cc3)C2)c1 [Compound 145] | 8 µg/mL (≈ 19.6 µM) | > 8 µg/mL | > 8 µg/mL | > 8 µg/mL | > 8 µg/mL | > 8 µg/mL | > 8 µg/mL | > 8 µg/mL | > 8 µg/mL | > 8 µg/mL | > 8 µg/mL | > 8 µg/mL |
| O=S(=O)(N[C@@H]1CCN(Cc2ccc(-c3ccccc3)cc2)C1)c1cccnc1 [Compound 146] | 8 µg/mL (≈ 20.3 µM) | > 8 µg/mL | > 8 µg/mL | > 8 µg/mL | > 8 µg/mL | > 8 µg/mL | > 8 µg/mL | > 8 µg/mL | > 8 µg/mL | > 8 µg/mL | > 8 µg/mL | > 8 µg/mL |
| O=S(=O)(N[C@@H]1CCN(Cc2ccc(-c3ccccc3)cc2)C1)c1cncc(F)c1 [Compound 147] | 8 µg/mL (≈ 19.4 µM) | > 8 µg/mL | > 8 µg/mL | > 8 µg/mL | > 8 µg/mL | > 8 µg/mL | > 8 µg/mL | > 8 µg/mL | > 8 µg/mL | > 8 µg/mL | > 8 µg/mL | > 8 µg/mL |
| CC(C)Oc1ccc(CN2CC[C@@H](NS(=O)(=O)c3cc(S(C)(=O)=O)ccc3Cl)C2)cc1 [Compound 148] | 8 µg/mL (≈ 16.4 µM) | > 8 µg/mL | > 8 µg/mL | > 8 µg/mL | > 8 µg/mL | > 8 µg/mL | > 8 µg/mL | > 8 µg/mL | > 8 µg/mL | > 8 µg/mL | > 8 µg/mL | > 8 µg/mL |
| CC(C)Oc1ccc(CN2CC[C@@H](NS(=O)(=O)c3ccc(Cl)cn3)C2)cc1 [Compound 149] | > 8 µg/mL | > 8 µg/mL | > 8 µg/mL | > 8 µg/mL | > 8 µg/mL | > 8 µg/mL | > 8 µg/mL | > 8 µg/mL | > 8 µg/mL | > 8 µg/mL | > 8 µg/mL | > 8 µg/mL |
| CC(C)Oc1ccc(CN2CC[C@@H](NS(=O)(=O)c3cncc(F)c3)C2)cc1 [Compound 150] | > 8 µg/mL | > 8 µg/mL | > 8 µg/mL | > 8 µg/mL | > 8 µg/mL | > 8 µg/mL | > 8 µg/mL | > 8 µg/mL | > 8 µg/mL | > 8 µg/mL | > 8 µg/mL | > 8 µg/mL |
| CS(=O)(=O)c1ccc(Cl)c(S(=O)(=O)N[C@@H]2CCN(Cc3ccc(OC4CC4)cc3)C2)c1 [Compound 151] | ~8 µg/mL (≈ 16.5 µM) | > 8 µg/mL | > 8 µg/mL | > 8 µg/mL | > 8 µg/mL | > 8 µg/mL | > 8 µg/mL | > 8 µg/mL | > 8 µg/mL | > 8 µg/mL | > 8 µg/mL | > 8 µg/mL |
| O=S(=O)(N[C@@H]1CCN(Cc2ccc(OC3CC3)cc2)C1)c1cc(F)cc(C(F)(F)F)c1 [Compound 152] | 8 µg/mL (≈ 17.4 µM) | > 8 µg/mL | > 8 µg/mL | > 8 µg/mL | > 8 µg/mL | > 8 µg/mL | > 8 µg/mL | > 8 µg/mL | > 8 µg/mL | > 8 µg/mL | > 8 µg/mL | > 8 µg/mL |
| Cc1ccncc1S(=O)(=O)N[C@@H]1CCN(Cc2ccc(OC3CC3)cc2)C1 [Compound 153] | 8 µg/mL (≈ 20.6 µM) | > 8 µg/mL | > 8 µg/mL | > 8 µg/mL | > 8 µg/mL | > 8 µg/mL | > 8 µg/mL | > 8 µg/mL | > 8 µg/mL | > 8 µg/mL | > 8 µg/mL | > 8 µg/mL |
| O=S(=O)(N[C@@H]1CCN(Cc2ccc(OC3CC3)cc2)C1)c1cncc(F)c1 [Compound 154] | > 8 µg/mL | > 8 µg/mL | > 8 µg/mL | > 8 µg/mL | > 8 µg/mL | > 8 µg/mL | > 8 µg/mL | > 8 µg/mL | > 8 µg/mL | > 8 µg/mL | > 8 µg/mL | > 8 µg/mL |
| COc1cc(CN2CC[C@@H](NS(=O)(=O)c3cccc(C#N)c3)C2)ccc1OC(C)C [Compound 155] | > 8 µg/mL | > 8 µg/mL | > 8 µg/mL | > 8 µg/mL | > 8 µg/mL | > 8 µg/mL | > 8 µg/mL | > 8 µg/mL | > 8 µg/mL | > 8 µg/mL | > 8 µg/mL | > 8 µg/mL |
| Cc1nn(C)c2ncc(S(=O)(=O)N[C@@H]3CCN(Cc4ccc(OC5CC5)cc4)C3)cc12 [Compound 157] | > 8 µg/mL | > 8 µg/mL | > 8 µg/mL | > 8 µg/mL | > 8 µg/mL | > 8 µg/mL | > 8 µg/mL | > 8 µg/mL | > 8 µg/mL | > 8 µg/mL | > 8 µg/mL | > 8 µg/mL |
| O=S(=O)(N[C@@H]1CCN(Cc2ccc(OC3CC3)cc2)C1)c1cnc2ccsc2c1 [Compound 158] | > 8 µg/mL | > 8 µg/mL | > 8 µg/mL | > 8 µg/mL | > 8 µg/mL | > 8 µg/mL | > 8 µg/mL | > 8 µg/mL | > 8 µg/mL | > 8 µg/mL | > 8 µg/mL | > 8 µg/mL |
| N#Cc1ccc(S(=O)(=O)N[C@@H]2CCN(Cc3ccc(OC4CC4)cc3)C2)cn1 [Compound 159] | > 8 µg/mL | > 8 µg/mL | > 8 µg/mL | > 8 µg/mL | > 8 µg/mL | > 8 µg/mL | > 8 µg/mL | > 8 µg/mL | > 8 µg/mL | > 8 µg/mL | > 8 µg/mL | > 8 µg/mL |
| N#Cc1ccc(S(=O)(=O)N[C@@H]2CCN(Cc3ccc(-c4ccccc4)cc3)C2)cn1 [Compound 160] | > 8 µg/mL | > 8 µg/mL | > 8 µg/mL | > 8 µg/mL | > 8 µg/mL | > 8 µg/mL | > 8 µg/mL | > 8 µg/mL | > 8 µg/mL | > 8 µg/mL | > 8 µg/mL | > 8 µg/mL |
| Cc1ccc(S(=O)(=O)N[C@@H]2CCN(Cc3ccc(OC(C)C)cc3)C2)cc1C#N [Compound 161] | > 8 µg/mL | > 8 µg/mL | > 8 µg/mL | > 8 µg/mL | > 8 µg/mL | > 8 µg/mL | > 8 µg/mL | > 8 µg/mL | > 8 µg/mL | > 8 µg/mL | > 8 µg/mL | > 8 µg/mL |
| Cc1ccc(S(=O)(=O)N[C@@H]2CCN(Cc3ccc(OC4CC4)cc3)C2)cc1C#N [Compound 162] | > 8 µg/mL | > 8 µg/mL | > 8 µg/mL | > 8 µg/mL | > 8 µg/mL | > 8 µg/mL | > 8 µg/mL | > 8 µg/mL | > 8 µg/mL | > 8 µg/mL | > 8 µg/mL | > 8 µg/mL |
| O=S(=O)(N[C@@H]1CCN(Cc2ccn(-c3ccccc3)n2)C1)c1cccc(OC(F)(F)F)c1 [Compound 163] | > 8 µg/mL | > 8 µg/mL | > 8 µg/mL | > 8 µg/mL | > 8 µg/mL | > 8 µg/mL | > 8 µg/mL | > 8 µg/mL | > 8 µg/mL | > 8 µg/mL | > 8 µg/mL | > 8 µg/mL |
